The target of the assay is recombinant human SAE enzyme (Homo sapiens (Human), UniProt Q9UBT2). In words: SAE HTRF enzyme assay. The class given is biochemical. The following applies: for inhibition at 0.111 µM: read-out: Percent Inhibition. The method, boiled down:
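0.11 nM SAE incubated with 0.5 μM ATP, 0.01 μM Ubc9-GST and 0.125 μM Sumo-Flag in HEPES pH 7.5, MgCl2, GSH, BSA, ±inhibitor, 105 min at 24° C. EDTA stop; Eu-cryptate anti-Flag/XL-APC anti-GST HTRF read after 2 h. Values given as single-concentration % inhibition or IC50.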
A general note: TR-FRET usually uses a lanthanide donor and a delayed reading to cut background.

The mark [1] stands for this setting: SAE inhibition at compound concentration 0.111 μM.
[2] abbreviates: SAE inhibition, class symbols, legend in nM.

These results are taken from patent publication US10780090B2, “Heteroaryl compounds useful as inhibitors of SUMO activating enzyme” (Millennium Pharmaceuticals, Inc., priority 2014, dated 2020).

Like-named read-outs stand apart in the source and are kept apart here.

As a reminder, the IC50 is the concentration that inhibits the measured activity by half. In general, inhibition refers to the share of the control response that was lost under treatment.

Sequence of recombinant human SAE enzyme (Q9UBT2 whole entry): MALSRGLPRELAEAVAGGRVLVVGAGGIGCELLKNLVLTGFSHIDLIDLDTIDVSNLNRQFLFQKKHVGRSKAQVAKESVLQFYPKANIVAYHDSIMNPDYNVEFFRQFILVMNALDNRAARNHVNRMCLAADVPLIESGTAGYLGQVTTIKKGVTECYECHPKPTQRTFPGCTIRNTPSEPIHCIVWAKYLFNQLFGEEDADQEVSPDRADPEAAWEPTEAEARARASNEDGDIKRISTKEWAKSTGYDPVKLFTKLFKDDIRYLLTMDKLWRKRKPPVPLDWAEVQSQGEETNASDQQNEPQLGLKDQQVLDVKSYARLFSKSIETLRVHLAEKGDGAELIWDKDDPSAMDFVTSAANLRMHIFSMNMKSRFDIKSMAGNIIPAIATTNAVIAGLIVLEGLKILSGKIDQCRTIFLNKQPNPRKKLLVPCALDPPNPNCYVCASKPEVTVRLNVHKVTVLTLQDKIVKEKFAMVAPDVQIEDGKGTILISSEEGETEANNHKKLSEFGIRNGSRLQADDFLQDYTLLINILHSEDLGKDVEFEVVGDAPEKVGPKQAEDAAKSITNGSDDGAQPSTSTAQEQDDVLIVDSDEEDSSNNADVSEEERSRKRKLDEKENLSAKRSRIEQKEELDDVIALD
Sequence of recombinant human SAE enzyme (Q9UBE0 whole entry partner): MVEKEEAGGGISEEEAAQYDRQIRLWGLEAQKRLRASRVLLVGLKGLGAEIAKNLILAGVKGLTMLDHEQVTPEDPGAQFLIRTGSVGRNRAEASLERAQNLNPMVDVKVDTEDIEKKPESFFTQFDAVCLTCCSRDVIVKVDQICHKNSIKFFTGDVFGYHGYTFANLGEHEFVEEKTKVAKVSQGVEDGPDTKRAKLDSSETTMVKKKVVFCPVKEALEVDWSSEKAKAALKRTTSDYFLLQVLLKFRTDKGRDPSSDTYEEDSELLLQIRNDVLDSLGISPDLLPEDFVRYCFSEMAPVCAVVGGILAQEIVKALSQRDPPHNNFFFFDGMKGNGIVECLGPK

On to `NS(=O)(=O)OC[C@H]1C[C@@H](Nc2ncncc2C(=O)c2cc([C@@H]3OCCc4ccc(Cl)cc43)c(Cl)s2)C[C@@H]1O` (single isomer, unassigned) [I-282a, [(1R,2S,4R)-4-{[5-({5-chloro-4-[(1R)-7-chloro-3,4-dihydro-1H-isochromen-1-yl]-2-thienyl}carbonyl)pyrimidin-4-yl]amino}-2-hydroxycyclopentyl]methyl sulfamate or [(1R,2S,4R)-4-{[5-({5-chloro-4-[(1S)-7-chloro-3,4-dihydro-1H-isochromen-1-yl]-2-thienyl}carbonyl)pyrimidin-4-yl]amino}-2-hydroxycyclopentyl]methyl sulfamate], for which the “Percent Inhibition” value under setting [1] was found to be 37%. Under setting [2], the IC50 lay within 100 to 1000 nM.

In the case of `Cc1sc(C(=O)c2cncnc2N[C@@H]2C[C@H](COS(N)(=O)=O)[C@@H](OC(=O)[C@@H](N)C(C)C)C2)cc1[C@@H]1OCCc2ccc(Cl)cc21` [I-338, (1S,2R,4R)-4-{[5-({4-[(1R)-7-Chloro-3,4-dihydro-1H-isochromen-1-yl]-5-methyl-2-thienyl}carbonyl)pyrimidin-4-yl]amino}-2-[(sulfamoyloxy)methyl]cyclopentyl (2S)-2-amino-3-methylbutanoate], the inhibition at 0.111 µM under setting [1] was found to be 56%. Besides, the IC50 under setting [2] was 10 to 100 nM.

For `CC(O)(c1cccc(Br)c1)c1csc(C(=O)c2cncnc2N[C@@H]2C[C@H](COS(N)(=O)=O)[C@@H](O)C2)c1` (single isomer, unassigned) [I-3b, [(1R,2S,4R)-4-{[5-({4-[(1R)-1-(3-bromophenyl)-1-hydroxyethyl]-2-thienyl}carbonyl)pyrimidin-4-yl]amino}-2-hydroxycyclopentyl]methyl sulfamate or [(1R,2S,4R)-4-{[5-({4-[(1S)-1-(3-bromophenyl)-1-hydroxyethyl]-2-thienyl}carbonyl)pyrimidin-4-yl]amino}-2-hydroxycyclopentyl]methyl sulfamate], under “Concentration 0.111 μM”, the “Percent Inhibition” value is on record as 100. In addition, under “class symbols A/B/C”, the IC50 was below 10 nM.

`Cc1sc(C(=O)c2cncnc2N[C@@H]2C[C@H](COS(N)(=O)=O)[C@@H](O)C2)cc1[C@@H]1OCCc2ccsc21` (mixture of isomers) [I-269, [(1R,2S,4R)-4-{[5-({4-[(7S)-4,7-dihydro-5H-thieno[2,3-c]pyran-7-yl]-5-methyl-2-thienyl}carbonyl)pyrimidin-4-yl]amino}-2-hydroxycyclopentyl]methyl sulfamate and [(1R,2S,4R)-4-{[5-({4-[(7R)-4,7-dihydro-5H-thieno[2,3-c]pyran-7-yl]-5-methyl-2-thienyl}carbonyl)pyrimidin-4-yl]amino}-2-hydroxycyclopentyl]methyl sulfamate]: the “Percent Inhibition” value (Concentration 0.111 μM) is 99. Further, the IC50 (class symbols A/B/C) is below 10 nM.

Turning to `CC(O)(c1cccc(Cl)c1)c1cc(C(=O)c2cncnc2N[C@@H]2C[C@H](COS(N)(=O)=O)[C@@H](O)C2)sc1Cl` (single isomer, unassigned) [I-102a, [(1R,2S,4R)-4-{[5-({5-chloro-4-[(1R)-1-(3-chlorophenyl)-1-hydroxyethyl]-2-thienyl}carbonyl)pyrimidin-4-yl]amino}-2-hydroxycyclopentyl]methyl sulfamate or [(1R,2S,4R)-4-{[5-({5-chloro-4-[(1S)-1-(3-chlorophenyl)-1-hydroxyethyl]-2-thienyl}carbonyl)pyrimidin-4-yl]amino}-2-hydroxycyclopentyl]methyl sulfamate], the “Percent Inhibition” value (Concentration 0.111 μM) turned out to be 36. Where the note is “class symbols A/B/C”, the IC50 lay within 100 to 1000 nM.

In the case of `Cc1sc(C(=O)c2cncnc2N[C@@H]2C[C@H](COS(N)(=O)=O)[C@@H](O)C2)cc1Cn1cccn1` [I-109, {(1R,2S,4R)-2-Hydroxy-4-[(5-{[5-methyl-4-(1H-pyrazol-1-ylmethyl)-2-thienyl]carbonyl}pyrimidin-4-yl)amino]cyclopentyl)methyl sulfamate], where the note is “Concentration 0.111 μM”, the inhibition at 0.111 µM was 96%. Further, for the setting “class symbols A/B/C”, the IC50 was below 10 nM.

Take `NS(=O)(=O)OC[C@H]1C[C@@H](Nc2ncncc2C(=O)c2cc([C@@H]3OCc4ccc(Cl)cc43)c(Cl)s2)C[C@@H]1O` (single isomer, unassigned) [I-310a, [(1R,2S,4R)-4-{[5-({5-chloro-4-[(1R)-6-chloro-1,3-dihydro-2-benzofuran-1-yl]-2-thienyl}carbonyl)pyrimidin-4-yl]amino}-2-hydroxycyclopentyl]methyl sulfamate or [(1R,2S,4R)-4-{[5-({5-chloro-4-[(1S)-6-chloro-1,3-dihydro-2-benzofuran-1-yl]-2-thienyl}carbonyl)pyrimidin-4-yl]amino}-2-hydroxycyclopentyl]methyl sulfamate]: under setting [1], the “Percent Inhibition” value was determined as 27%. For the same compound, the IC50 under setting [2] was in the range of 100 to 1000 nM.

With `NS(=O)(=O)OC[C@H]1C[C@@H](Nc2ncncc2C(=O)c2cc(Cc3ccccc3)c(Cl)s2)[C@@H](F)[C@@H]1O` [I-162, [(1R,2R,3R,4R)-4-({5-[(4-Benzyl-5-chloro-2-thienyl)carbonyl]pyrimidin-4-yl}amino) 3-fluoro-2-hydroxycyclopentyl]methyl sulfamate], the inhibition at 0.111 µM (Concentration 0.111 μM) worked out at 91%. In addition, the IC50 (class symbols A/B/C) was in the range of 10 to 100 nM.

Consider `N[C@H](c1cccc(Br)c1)c1cc(C(=O)c2cncnc2N[C@@H]2C[C@H](COS(N)(=O)=O)[C@@H](O)C2)sc1Cl` (single isomer, unassigned) [I-22a, [(1R,2S,4R)-4-{[5-({4-[(R)-amino(3-bromophenyl)methyl]-5-chloro-2-thienyl}carbonyl)pyrimidin-4-yl]amino}-2-hydroxycyclopentyl]methyl sulfamate or [(1R,2S,4R)-4-{[5-({4-[(S)-amino(3-bromophenyl)methyl]-5-chloro-2-thienyl}carbonyl)pyrimidin-4-yl]amino}-2-hydroxycyclopentyl]methyl sulfamate], for which the “Percent Inhibition” value (Concentration 0.111 μM) is on record as 83. Also, the IC50 (class symbols A/B/C) was in the range of 10 to 100 nM.

Take `NS(=O)(=O)OC[C@H]1C[C@@H](Nc2ncncc2C(=O)c2cc([C@@H]3OCCc4cc(F)c(F)cc43)cs2)C[C@@H]1O` (single isomer, unassigned) [I-273, [(1R,2S,4R)-4-{[5-({4-[(1R)-6,7-Difluoro-3,4-dihydro-1H-isochromen-1-yl]-2-thienyl}carbonyl)pyrimidin-4-yl]amino}-2-hydroxycyclopentyl]methyl sulfamate or [(1R,2S,4R)-4-{[5-({4-[(1S)-6,7-Difluoro-3,4-dihydro-1H-isochromen-1-yl]-2-thienyl}carbonyl)pyrimidin-4-yl]amino}-2-hydroxycyclopentyl]methyl sulfamate]: where the note is “Concentration 0.111 μM”, the “Percent Inhibition” value turned out to be 99. Moreover, the IC50 (class symbols A/B/C) is below 10 nM.

Turning to `N[C@@H](c1cccc(Br)n1)c1cc(C(=O)c2cncnc2N[C@@H]2C[C@H](COS(N)(=O)=O)[C@@H](O)[C@H]2O)sc1Cl` (single isomer, unassigned) [I-10b, [(1R,2R,3S,4R)-4-{[5-({4-[(R)-amino(6-bromopyridin-2-yl)methyl]-5-chloro-2-thienyl}carbonyl)pyrimidin-4-yl]amino}-2,3-dihydroxycyclopentyl]methyl sulfamate or [(1R,2R,3S,4R)-4-{[5-({4-[(S)-amino(6-bromopyridin-2-yl)methyl]-5-chloro-2-thienyl}carbonyl)pyrimidin-4-yl]amino}-2,3-dihydroxycyclopentyl]methyl sulfamate], the “Percent Inhibition” value (Concentration 0.111 μM) is reported as 97. Further, where the note is “class symbols A/B/C”, the IC50 is below 10 nM.

As for `NS(=O)(=O)OC[C@H]1C[C@@H](Nc2ncncc2C(=O)c2cc(CCc3cccc(Cl)c3)cs2)C[C@@H]1O` [I-146, [(1R,2S,4R)-4-{[5-({4-[2-(3-chlorophenyl)ethyl]-2-thienyl}carbonyl)pyrimidin-4-yl]amino}-2-hydroxycyclopentyl]methyl sulfamate], the inhibition at 0.111 µM (Concentration 0.111 μM) was 94%. In addition, the IC50 (class symbols A/B/C) is below 10 nM.

Turning to `NS(=O)(=O)OC[C@H]1C[C@@H](Nc2ncncc2C(=O)c2cc([C@H]3NCCc4ccccc43)cs2)[C@H](O)[C@@H]1O` (mixture of isomers) [I-295, [(1R,2R,3S,4R)-2,3-dihydroxy-4-{[5-({4-[(1S)-1,2,3,4-tetrahydroisoquinolin-1-yl]-2-thienyl}carbonyl)pyrimidin-4-yl]amino}cyclopentyl]methyl sulfamate and [(1R,2R,3S,4R)-2,3-dihydroxy-4-{[5-({4-[(1R)-1,2,3,4-tetrahydroisoquinolin-1-yl]-2-thienyl}carbonyl)pyrimidin-4-yl]amino}cyclopentyl]methyl sulfamate], the “Percent Inhibition” value under setting [1] came out at 99%. In addition, the IC50 under setting [2] is below 10 nM.

As for `NS(=O)(=O)OC[C@H]1C[C@@H](Nc2ncncc2C(=O)c2cc([C@H]3NCCc4ccccc43)c(Cl)s2)C[C@@H]1O` (single isomer, unassigned) [I-279a, [(1R,2S,4R)-4-{[5-({5-chloro-4-[(1S)-1,2,3,4-tetrahydroisoquinolin-1-yl]-2-thienyl}carbonyl)pyrimidin-4-yl]amino}-2-hydroxycyclopentyl]methyl sulfamate or [(1R,2S,4R)-4-{[5-({5-chloro-4-[(1R)-1,2,3,4-tetrahydroisoquinolin-1-yl]-2-thienyl}carbonyl)pyrimidin-4-yl]amino}-2-hydroxycyclopentyl]methyl sulfamate], for the setting “Concentration 0.111 μM”, the “Percent Inhibition” value was found to be 100. For the setting “class symbols A/B/C”, the IC50 was below 10 nM.

As for `NS(=O)(=O)OC[C@H]1C[C@@H](Nc2ncncc2C(=O)c2cc(Cn3ccc4ccc(C(F)(F)F)cc43)cs2)C[C@@H]1O` [I-184, [(1R,2S,4R)-2-hydroxy-4-({5-[(4-{[6-(trifluoromethyl)-1H-indol-1-yl]methyl}-2-thienyl)carbonyl]pyrimidin-4-yl}amino)cyclopentyl]methyl sulfamate], for the setting “Concentration 0.111 μM”, the inhibition at 0.111 µM came to 85%. Moreover, the IC50 (class symbols A/B/C) is 10 to 100 nM.
